Data: patent US20080250710A1, “Low Light Cultivation Method and Plant Growth Promoting Agent” (priority 2005, published 2008)

Key:
[1] = test system: morning glory (Pharbitis nil var. Violet) seedlings; test: Low light cultivation experiment: number of days until lodging of morning glory young plants; type: in vivo; conditions: for Average value (days) of the numbers of days until lodging: 250 mL per pot once every four days, 200 lux, 23° C.; for effectiveness to low light cultivation (days until lodging versus control test solution): verdict in words
Protocol: As a plant, morning glory (Pharbitis nil var. Violet) seedlings (day 7 after germination) were used. Experiments were conducted in an incubator (low temperature of 23° C.) in daily cycles where a light period (200 lux) is 14 hours and a dark period is 10 hours in a day. Morning glory seeds (purchased from Marutane Co., Ltd., Kyoto) were sown in black plastic pots (commercially available No. 105 size: diameter 105 cm, height 90 cm). Vermiculite was used as culture medium (the wet weight of vermiculite in a pot was 350 g).
250 mL of a test solution was given to each pot once every four days. Test data was taken from 10 morning glory seedlings (young plants) grown per pot. After start of the test, the number of seedlings that lodged was counted every day. A lodging criterion is that the hypocotyl (a rachis under a cotyledon) of a young plant lodges and the cotyledon contacts culture medium, or the whole cotyledon died. Lodged young plants were removed each time. Note that the effect was evaluated using the average value of the numbers of days until lodging. The average value was calculated as follows. For example, when three plants lodged on day 9, four plants lodged on day 10, and three plants lodged on day 11, then the average value is 10.0 (=(9×3+10×4+11×3)/10).
Eight organic acids (aminolevulinic acid, citric acid, malic acid, succinic acid, tartaric acid, acetic acid, oxalic acid, and lactic acid) were prepared. Each organic acid was dissolved in a 500-fold dilution of a liquid fertilizer (VIGOR LIFE V) (a solution in which VIGOR LIFE V was diluted 500-fold with distilled water). Thereafter, the solution was adjusted to pH 5.0 with potassium hydroxide. Note that the organic acid concentration of each test solution was 5 mM.
A 500-fold dilution of VIGOR LIFE V was used as a control test solution.
The eight test solutions and the control test solution were used to conduct the low light cultivation experiment. Note that the upper row of Table 1 indicates the organic acids contained in the test solutions (the control test solution contained no organic acid). Also, the lower row of Table 1 indicates the average values (days) of the numbers of days until lodging of the morning glory young plants.
Six sugars (sucrose, glucose, fructose, trehalose, palatinose, and xylose) were prepared. Each sugar was dissolved in a 500-fold dilution of a liquid fertilizer (VIGOR LIFE V) (a solution in which VIGOR LIFE V was diluted 500-fold with distilled water). Note that the sugar concentration of each test solution was 3%.
Also, a 500-fold dilution of VIGOR LIFE V was used as a control test solution. […]
Note that the upper row of Table 2 indicates the sugars contained in the test solutions (the control test solution contained no sugar). Also, the lower row of Table 2 indicates the average values (days) of the numbers of days until lodging of the morning glory young plants.

[2] = test system: houseplant weeping fig (Ficus benzyamina); test: Low light cultivation of weeping fig: leaf survival ratio; type: in vivo; conditions: after four weeks, verdict in words
Protocol: The inorganic solution was used as a control reagent. (Reagent 1: the inorganic solution in which aminolevulinic acid is dissolved, Reagent 2: the inorganic solution in which citric acid is dissolved, and Reagent 3: the inorganic solution in which citric acid and sucrose are dissolved).
Note that, in respective reagents, the citric acid concentration was 5 mM, the sucrose concentration was 3%, and the aminolevulinic acid concentration was 100 ppm. The reagents containing citric acid (Reagent 2 and Reagent 3) were adjusted to pH 5.0 with potassium hydroxide.
Low light cultivation was conducted using the reagents and a houseplant weeping fig, with two methods below.
Regular cultivation: four commercially available weeping fig plants in No. 4-sized pots were prepared. The four reagents (Reagents 1 to 3 and the control reagent) were given to the respective plants in an amount of 50 mL once (Monday) every week. Watering was performed in an amount of 50 mL twice (Wednesday and Friday) every week. […]
The effect of each reagent was evaluated by counting the number of leaves for each pot and calculating the survival ratio (%) of leaves every week. Note that the leaf survival ratio (%) was calculated as a “survival ratio (%)=the number of counted weeping fig leaves/the number of weeping fig leaves before low light cultivation (initial value)×100”.

[3] = organic acid 5 mM in 500-fold dilution of VIGOR LIFE V, pH 5.0
[4] = sugar 3% in 500-fold dilution of VIGOR LIFE V

Compound | Average value (days) of the numbers of days until lodging [1, 3] [days] | Average value (days) of the numbers of days until lodging [1, 4] [days] | also measured
CC(=O)O [Acetic acid, acetic acid] | 3.9 | – | –
NCC(=O)CCC(=O)O [Aminolevulinic acid, aminolevulinic acid, reference compound] | 2.5 | – | –
O=C(O)CC(O)(CC(=O)O)C(=O)O [Citric acid, citric acid] | 12.9 | – | effectiveness to low light cultivation (leaf survival ratio versus control reagent) [2]: effective; effectiveness to low light cultivation (days until lodging versus control test solution) ([1]; organic acid 5 mM, pH 5.0): effective
O=C(CO)[C@@H](O)[C@H](O)[C@H](O)CO [Fructose, fructose] | – | 22.1 | effectiveness to low light cultivation (days until lodging versus control test solution) ([1]; sugar 3%): particularly effective
CC(O)C(=O)O (centres unmarked) [Lactic acid, lactic acid] | 6.1 | – | –
O=C(O)CC(O)C(=O)O (centres unmarked) [Malic acid, malic acid] | 11.1 | – | effectiveness to low light cultivation (days until lodging versus control test solution) ([1]; organic acid 5 mM, pH 5.0): effective
O=C(O)C(=O)O [Oxalic acid, oxalic acid] | 3.7 | – | –
OC[C@H]1O[C@H](OC[C@H]2OC(O)(CO)[C@@H](O)[C@@H]2O)[C@H](O)[C@@H](O)[C@@H]1O (some centres unmarked) [Palatinose, palatinose] | – | 9.6 | –
O=C(O)CCC(=O)O [Succinic acid, succinic acid] | 10.4 | – | effectiveness to low light cultivation (days until lodging versus control test solution) ([1]; organic acid 5 mM, pH 5.0): effective
OC[C@H]1O[C@@](CO)(O[C@H]2O[C@H](CO)[C@@H](O)[C@H](O)[C@H]2O)[C@@H](O)[C@@H]1O [Sucrose, sucrose] | – | 25.9 | effectiveness to low light cultivation (days until lodging versus control test solution) ([1]; sugar 3%): particularly effective
O=C(O)C(O)C(O)C(=O)O (centres unmarked) [Tartaric acid, tartaric acid] | 4.9 | – | –
OC[C@H]1O[C@H](O[C@H]2O[C@H](CO)[C@@H](O)[C@H](O)[C@H]2O)[C@H](O)[C@@H](O)[C@@H]1O [Trehalose, trehalose] | – | 21.9 | effectiveness to low light cultivation (days until lodging versus control test solution) ([1]; sugar 3%): particularly effective
O=C[C@H](O)[C@@H](O)[C@H](O)CO [Xylose, xylose] | – | 10.1 | –
